Measurements: patent US5665704A, “Receptor specific atrial natriuretic peptides” (Genentech, Inc., priority 1995, dated 1997)
Bridge positions count the residues as written; N and C are the ends. Square brackets hold non-standard residues; d marks the D form. Peptide text beside a SMILES is read from it. ξ: configuration not given here. ξPhg = NC(C(=O)O)c1ccccc1; Mpa = O=C(O)CCS

Columns and labels:
[1] = target: Human endopeptidase 24.11 (hNEP) (Homo sapiens, UniProt P08473); test: Degradation of ANF variants by human NEP, half-life by HPLC (Example 22); conditions: human
Description: The half-life of various ANF variants was measured according to the following procedure.
ANF Solution: An accurately weighed amount of ANF or variant thereof was diluted with HEPES buffer (5 ml of 1M HEPES Buffer and 0.1 ml of Tween 20 diluted to a 100 ml volume with DI water) to make a 0.5 mg/ml solution.
hNEP/HEPES Solution: 75 μl of a 1 mg/ml solution of hNEP (see U.S. Pat. No. 4,960,700) is dissolved in 992.5 μl of HEPES buffer (as described above) and vortex mixed. The resulting mixture is stored in a silylated Eppendorf tube and periodically checked for activity against an ANF peptide standard.
Assay conditions: 150 μl of an ANF solution in the HEPES buffer is diluted with 820 μl HEPES buffer and vortex mixed (1 sec). Careful note of the time is taken as 30 μl of the hNEP/HEPES solution is added and the solution is vortex mixed for 1 sec. and analyzed by periodic removal of constant volume aliquots by the HPLC autosampler. A 2.5 cm×50 cm, C-18 reversed-phase column (15 micron, 300Å]) was used and elution was achieved by using a shallow gradient of increasing acetonitrile. The elution conditions consisted of a 10% to 50% acetonitrile (containing 0.1% TFA) gradient at 0.5% min.^-1. The aqueous phase was 0.1% TFA in water. The peak area of the ANP peptide is recorded at these periodic intervals and a half-life is determined from these values.

hNPR-A = target: T1, hNPR-A (Homo sapiens, UniProt P16066); test: Binding affinity for hNPR-A (competitive displacement of I^125 labeled wild-type ANF); conditions: Table I; read-out: Binding Affinity IC50 (pM) hNPR-A
T1 sequence (P16066 33-1061): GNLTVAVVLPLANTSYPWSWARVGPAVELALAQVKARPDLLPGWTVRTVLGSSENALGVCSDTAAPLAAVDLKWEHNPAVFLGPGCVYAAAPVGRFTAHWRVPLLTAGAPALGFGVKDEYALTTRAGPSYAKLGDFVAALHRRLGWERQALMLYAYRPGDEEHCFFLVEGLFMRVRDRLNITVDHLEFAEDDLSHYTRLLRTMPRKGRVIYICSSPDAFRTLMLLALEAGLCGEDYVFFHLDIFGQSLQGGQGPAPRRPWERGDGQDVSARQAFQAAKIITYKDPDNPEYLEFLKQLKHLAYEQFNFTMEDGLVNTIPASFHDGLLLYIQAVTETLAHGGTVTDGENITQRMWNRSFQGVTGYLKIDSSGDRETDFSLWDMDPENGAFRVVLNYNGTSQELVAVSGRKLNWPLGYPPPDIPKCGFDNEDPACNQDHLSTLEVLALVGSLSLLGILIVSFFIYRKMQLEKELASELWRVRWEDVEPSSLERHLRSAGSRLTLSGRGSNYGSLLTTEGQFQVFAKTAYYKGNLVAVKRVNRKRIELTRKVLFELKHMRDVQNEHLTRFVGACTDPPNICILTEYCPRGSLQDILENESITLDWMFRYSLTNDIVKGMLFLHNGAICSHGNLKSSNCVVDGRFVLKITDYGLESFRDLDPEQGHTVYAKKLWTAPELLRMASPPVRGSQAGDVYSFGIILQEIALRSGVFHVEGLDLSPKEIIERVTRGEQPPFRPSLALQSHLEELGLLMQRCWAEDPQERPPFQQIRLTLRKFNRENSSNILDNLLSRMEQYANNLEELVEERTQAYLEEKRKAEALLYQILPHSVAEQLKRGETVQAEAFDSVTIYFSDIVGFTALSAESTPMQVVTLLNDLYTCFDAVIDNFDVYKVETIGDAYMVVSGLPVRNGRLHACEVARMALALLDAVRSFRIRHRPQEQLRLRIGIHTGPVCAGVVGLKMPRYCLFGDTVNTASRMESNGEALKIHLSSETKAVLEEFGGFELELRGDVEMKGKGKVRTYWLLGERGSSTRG

hNPR-C = target: T2, hNPR-C (Homo sapiens, UniProt P17342); test: Binding affinity for clearance receptor hNPR-C; conditions: Table I; read-out: Binding Affinity IC50 (pM) hNPR-C
T2 sequence (P17342 27-541): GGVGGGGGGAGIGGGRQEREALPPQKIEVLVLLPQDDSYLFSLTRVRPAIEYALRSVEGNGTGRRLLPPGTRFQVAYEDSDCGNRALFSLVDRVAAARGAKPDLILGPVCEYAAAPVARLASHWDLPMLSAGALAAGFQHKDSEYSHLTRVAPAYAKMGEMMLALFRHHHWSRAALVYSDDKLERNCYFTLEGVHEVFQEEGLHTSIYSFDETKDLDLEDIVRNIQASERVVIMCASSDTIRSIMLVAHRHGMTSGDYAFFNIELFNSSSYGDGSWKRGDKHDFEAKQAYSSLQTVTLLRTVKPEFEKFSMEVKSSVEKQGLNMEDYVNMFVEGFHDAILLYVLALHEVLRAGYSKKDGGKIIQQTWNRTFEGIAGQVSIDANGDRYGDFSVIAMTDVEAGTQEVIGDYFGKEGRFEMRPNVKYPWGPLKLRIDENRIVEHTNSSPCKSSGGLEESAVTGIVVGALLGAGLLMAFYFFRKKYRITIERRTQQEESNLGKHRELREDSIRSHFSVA
Text: For assay systems to measure binding of hANF and the compounds of this invention to hNPR-C see: Schank, D. B., et al., Biochem. Biophys. Res. Comm. 127:433-442 (1985); Scarborough, R. M., J. Biol. Chem. 261:12960-12964 and WO 90/01940.

Human endopeptidase 24.11 (hNEP), sequence (P08473 whole entry): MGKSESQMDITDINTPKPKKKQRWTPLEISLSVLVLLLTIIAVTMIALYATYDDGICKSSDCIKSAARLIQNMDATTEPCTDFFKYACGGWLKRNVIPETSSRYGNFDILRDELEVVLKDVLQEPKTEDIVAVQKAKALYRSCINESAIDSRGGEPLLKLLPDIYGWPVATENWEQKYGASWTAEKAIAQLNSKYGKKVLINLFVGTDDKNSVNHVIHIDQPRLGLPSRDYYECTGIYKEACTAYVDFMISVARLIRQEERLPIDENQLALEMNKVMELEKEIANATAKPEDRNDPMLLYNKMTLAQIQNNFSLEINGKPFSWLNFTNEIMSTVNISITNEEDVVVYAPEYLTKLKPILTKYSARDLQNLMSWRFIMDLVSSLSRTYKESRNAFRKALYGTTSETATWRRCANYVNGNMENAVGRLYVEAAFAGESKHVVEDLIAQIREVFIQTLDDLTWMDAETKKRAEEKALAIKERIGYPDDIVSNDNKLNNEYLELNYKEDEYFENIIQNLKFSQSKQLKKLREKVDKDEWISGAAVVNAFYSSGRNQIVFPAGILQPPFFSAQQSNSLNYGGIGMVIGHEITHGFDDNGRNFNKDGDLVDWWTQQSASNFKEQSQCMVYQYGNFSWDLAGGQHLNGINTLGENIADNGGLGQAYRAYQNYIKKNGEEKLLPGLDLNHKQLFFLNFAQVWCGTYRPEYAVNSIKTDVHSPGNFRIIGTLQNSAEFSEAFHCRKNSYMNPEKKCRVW

Row | Compound | half-life at 32 nM/ml [1] | IC50 (hNPR-A) | IC50 (hNPR-C) | half-life at 0.5 mg/ml [1]
1 | CC[C@H](C)[C@@H]1NC(=O)[C@H](CCCNC(=N)N)NC(=O)CNC(=O)CNC(=O)[C@H](Cc2ccccc2)NC(=O)[C@@H](C(C)C)NC(=O)[C@@H](NC(=O)[C@H](CO)NC(=O)[C@@H](N)CO)CSSC[C@@H](C(=O)N[C@@H](Cc2ccccc2)C(=O)N[C@@H](CCCNC(=N)N)C(=O)O)NC(=O)[C@H]([C@@H](C)CC)NC(=O)[C@H](CCCNC(=N)N)NC(=O)[C@H](CC(=O)O)NC1=O [ANF40] (H-SSC[dV]FGGRIDRICFR-OH; disulfide 3-13 (inferred); N-terminus and C-terminus assumed) |  |  |  | 9.95 h
2 | CC[C@H](C)[C@@H]1NC(=O)[C@H](CCCNC(=N)N)NC(=O)[C@H](CC(=O)O)NC(=O)[C@H]([C@@H](C)CC)NC(=O)[C@H](CO)NC(=O)CNC(=O)[C@@H]([C@H](C)O)NC(=O)[C@H](Cc2ccccc2)NC(=O)CCSSC[C@@H](C(=O)N[C@@H](CC(N)=O)C(=O)N[C@@H](CO)C(=O)N[C@@H](Cc2ccccc2)C(=O)N[C@@H](CCCNC(=N)N)C(=O)N[C@@H](Cc2ccc(O)cc2)C(=O)O)NC(=O)CNC(=O)[C@H](CC(C)C)NC(=O)CNC(=O)[C@H](CO)NC(=O)[C@H](CCC(N)=O)NC(=O)[C@H](C)NC(=O)[C@H](CCCNC(=N)N)NC1=O [ANF80] ([Mpa]F[dT]GSIDRIRAQSGLGCNSFRY-OH; disulfide 1-17) |  | 423 pM | 739000 pM | 
3 | CC[C@H](C)[C@@H]1NC(=O)[C@H](CCCNC(=N)N)NC(=O)[C@H](CC(=O)O)NC(=O)[C@H]([C@@H](C)CC)NC(=O)[C@H](CO)NC(=O)CNC(=O)[C@@H](C)NC(=O)[C@H](Cc2ccccc2)NC(=O)CCSSC[C@@H](C(=O)N[C@@H](CC(N)=O)C(=O)N[C@@H](CO)C(=O)N[C@@H](Cc2ccccc2)C(=O)N[C@@H](CCCNC(=N)N)C(=O)N[C@@H](Cc2ccc(O)cc2)C(=O)O)NC(=O)CNC(=O)[C@H](CC(C)C)NC(=O)CNC(=O)[C@H](CO)NC(=O)[C@H](CCC(N)=O)NC(=O)[C@H](C)NC(=O)[C@H](CCCNC(=N)N)NC1=O [ANF81] ([Mpa]F[dA]GSIDRIRAQSGLGCNSFRY-OH; disulfide 1-17) |  | 1400 pM | 3.86e+06 pM | 
4 | CC[C@H](C)[C@@H]1NC(=O)[C@H](CCCNC(=N)N)NC(=O)[C@H](CC(=O)O)NC(=O)[C@H]([C@@H](C)CC)NC(=O)[C@H](CO)NC(=O)CNC(=O)[C@H]([C@@H](C)O)NC(=O)[C@H](Cc2ccccc2)N(C)C(=O)[C@@H](NC(=O)[C@H](CO)NC(=O)[C@H](CO)NC(=O)[C@H](CCCNC(=N)N)NC(=O)[C@H](CCCNC(=N)N)NC(=O)[C@H](CC(C)C)NC(=O)[C@@H](N)CO)CSSC[C@@H](C(=O)N[C@@H](CC(N)=O)C(=O)N[C@@H](CO)C(=O)N[C@@H](Cc2ccccc2)C(=O)N[C@@H](CCCNC(=N)N)C(=O)N[C@@H](Cc2ccc(O)cc2)C(=O)O)NC(=O)CNC(=O)[C@H](CC(C)C)NC(=O)CNC(=O)[C@H](CO)NC(=O)[C@H](CCC(N)=O)NC(=O)[C@H](C)NC(=O)[C@H](CCCNC(=N)N)NC1=O [ANF83] |  | 16 pM | 3.44e+06 pM | 
5 | CC[C@H](C)[C@@H]1NC(=O)[C@H](CCCNC(=N)N)NC(=O)[C@H](CC(=O)O)NC(=O)[C@H]([C@@H](C)CC)NC(=O)[C@H](CO)NC(=O)CNC(=O)[C@H]([C@@H](C)O)NC(=O)[C@H](Cc2ccccc2)NC[C@@H](NC(=O)[C@H](CO)NC(=O)[C@H](CO)NC(=O)[C@H](CCCNC(=N)N)NC(=O)[C@H](CCCNC(=N)N)NC(=O)[C@H](CC(C)C)NC(=O)[C@@H](N)CO)CSSC[C@@H](C(=O)N[C@@H](CC(N)=O)C(=O)N[C@@H](CO)C(=O)N[C@@H](Cc2ccccc2)C(=O)N[C@@H](CCCNC(=N)N)C(=O)N[C@@H](Cc2ccc(O)cc2)C(=O)O)NC(=O)CNC(=O)[C@H](CC(C)C)NC(=O)CNC(=O)[C@H](CO)NC(=O)[C@H](CCC(N)=O)NC(=O)[C@H](C)NC(=O)[C@H](CCCNC(=N)N)NC1=O [ANF84] |  | 21 pM | 1.9e+07 pM | 

Continued, in another order:

Row | half-life at 32 nM/ml [1] | IC50 (hNPR-A) | IC50 (hNPR-C) | Compound | half-life at 0.5 mg/ml [1]
6 | 9.52 h |  |  | CC[C@H](C)[C@@H]1NC(=O)[C@H](CCCNC(=N)N)NC(=O)[C@H](CC(=O)O)NC(=O)[C@H]([C@@H](C)CC)NC(=O)[C@H](CC(=O)O)NC(=O)CNC(=O)[C@H](CCCNC(=N)N)NC(=O)[C@H](Cc2ccccc2)NC(=O)[C@@H](NC(=O)[C@H](CO)NC(=O)[C@H](CO)NC(=O)[C@H](CCCNC(=N)N)NC(=O)[C@H](CCCNC(=N)N)NC(=O)[C@H](CC(C)C)NC(=O)[C@@H](N)CO)CSSC[C@@H](C(=O)N[C@@H](CC(N)=O)C(=O)N[C@@H](CO)C(=O)N[C@@H](Cc2ccccc2)C(=O)N[C@@H](CCCNC(=N)N)C(=O)N[C@@H](Cc2ccc(O)cc2)C(=O)O)NC(=O)CNC(=O)[C@H](CC(C)C)NC(=O)CNC(=O)[C@H](CO)NC(=O)[C@H](CCC(N)=O)NC(=O)[C@H](C)NC(=O)[C@H](CCCNC(=N)N)NC1=O [ANF28] (H-SLRRSSCFRGDIDRIRAQSGLGCNSFRY-OH; disulfide 7-23) | 
7 |  | 1200 pM | 6.14e+06 pM | CC[C@H](C)[C@@H]1NC(=O)[C@H](CCCNC(=N)N)NC(=O)[C@H](CC(=O)O)NC(=O)[C@H]([C@@H](C)CC)NC(=O)[C@H](CC(=O)O)NC(=O)CNC(=O)[C@@H](C)NC(=O)[C@H](Cc2ccccc2)NC(=O)[C@@H](NC(=O)[C@H](CO)NC(=O)[C@H](CO)NC(=O)[C@H](CCCNC(=N)N)NC(=O)[C@H](CCCNC(=N)N)NC(=O)[C@H](CC(C)C)NC(=O)[C@@H](N)CO)CSSC[C@@H](C(=O)N[C@@H](CC(N)=O)C(=O)N[C@@H](CO)C(=O)N[C@@H](Cc2ccccc2)C(=O)N[C@@H](CCCNC(=N)N)C(=O)N[C@@H](Cc2ccc(O)cc2)C(=O)O)NC(=O)CNC(=O)[C@H](CC(C)C)NC(=O)CNC(=O)[C@H](CO)NC(=O)[C@H](CCC(N)=O)NC(=O)[C@H](C)NC(=O)[C@H](CCCNC(=N)N)NC1=O [ANF90] (H-SLRRSSCF[dA]GDIDRIRAQSGLGCNSFRY-OH; disulfide 7-23) | 
8 |  | 187 pM | 3.23e+06 pM | CC[C@H](C)[C@@H]1NC(=O)[C@H](CCCNC(=N)N)NC(=O)[C@H](CC(=O)O)NC(=O)[C@H]([C@@H](C)CC)NC(=O)[C@H](CO)NC(=O)CNC(=O)[C@H]([C@@H](C)O)NC(=O)C(c2ccccc2)NC(=O)[C@@H](NC(=O)[C@H](CO)NC(=O)[C@H](CO)NC(=O)[C@H](CCCNC(=N)N)NC(=O)[C@H](CCCNC(=N)N)NC(=O)[C@H](CC(C)C)NC(=O)[C@@H](N)CO)CSSC[C@@H](C(=O)N[C@@H](CC(N)=O)C(=O)N[C@@H](CO)C(=O)N[C@@H](Cc2ccccc2)C(=O)N[C@@H](CCCNC(=N)N)C(=O)N[C@@H](Cc2ccc(O)cc2)C(=O)O)NC(=O)CNC(=O)[C@H](CC(C)C)NC(=O)CNC(=O)[C@H](CO)NC(=O)[C@H](CCC(N)=O)NC(=O)[C@H](C)NC(=O)[C@H](CCCNC(=N)N)NC1=O (some centres unmarked) [ANF100-1] (H-SLRRSSC[ξPhg]TGSIDRIRAQSGLGCNSFRY-OH; disulfide 7-23) | 
